Experimental data reported in ChEMBL document CHEMBL5247648, “Design, Synthesis, and Anti-Cancer Evaluation of Novel Cyclic Phosphate Prodrug of Gemcitabine” (J Med Chem, 2023).

Assays:
MV4-11 = assay: Antiproliferative activity against human MV4-11 cells assessed as inhibition of cell proliferation treated for 72 hrs by resazurin dye-based fluorescence assay; assay type: functional; details: MV4-11, 72 h
JeKo-1 = assay: Antiproliferative activity against human JeKo-1 cells assessed as inhibition of cell proliferation treated for 72 hrs by resazurin dye-based fluorescence assay; assay type: functional; details: JeKo-1, 72 h
MIA PaCa-2 = assay: Antiproliferative activity against human MIA PaCa-2 cells assessed as inhibition of cell proliferation treated for 72 hrs by resazurin dye-based fluorescence assay; assay type: functional; details: MIA PaCa-2, 72 h
CWR22R [1] = assay: Antiproliferative activity against human 22Rv1 cells assessed as inhibition of cell proliferation treated for 72 hrs by resazurin dye-based fluorescence assay; assay type: functional; details: 22Rv1, 72 h
Huh-7 = assay: Antiproliferative activity against human Huh-7 cells assessed as inhibition of cell proliferation treated for 72 hrs by resazurin dye-based fluorescence assay; assay type: functional; details: Huh-7, 72 h
MM1.S = assay: Antiproliferative activity against human MM1.S cells assessed as inhibition of cell proliferation treated for 72 hrs by resazurin dye-based fluorescence assay; assay type: functional
BXPC-3 [2] = assay: Antiproliferative activity against human BXPC-3 cells assessed as inhibition of cell proliferation treated for 72 hrs by resazurin dye-based fluorescence assay; assay type: functional; details: BXPC-3, 72 h
[3] = Toxicity in castrated male nude Balb/c mouse xenografted with human 22Rv1 cells assessed as toxic signs at 50 mg/kg, ip administered twice a week measured after 28 days; assay type: organism-based, CWR22R; details: in vivo, 672 h, time 28 day
BXPC-3 [4] = assay: Induction of apoptosis in human BXPC-3 cells assessed as viable cells at 100 nM incubated for 24 hrs by […] (reference value: 93.51 %); assay type: functional; details: read-out: Activity
[5] = Toxicity in castrated male nude Balb/c mouse xenografted with human 22Rv1 cells assessed as tolerance at 50 mg/kg, ip administered twice a week measured after 28 days; assay type: organism-based, CWR22R; details: in vivo, 672 h, time 28 day
BXPC-3 [6] = assay: Induction of apoptosis in human BXPC-3 cells assessed as early cells at 100 nM incubated for 24 hrs by […] (reference value: 1.68 %); assay type: functional
BXPC-3 [7] = assay: Induction of apoptosis in human BXPC-3 cells assessed as late cells at 100 nM incubated for 24 hrs by […] (reference value: 1.24 %); assay type: functional
CWR22R [8] = assay: In vivo antitumor activity against human 22Rv1 cells xenografted in castrated male nude Balb/c mouse assessed as relative increment ratio at 50 mg/kg, ip administered twice a week measured after 28 days relative to control; assay type: functional; details: time 28 day
[9] = Toxicity in castrated male nude Balb/c mouse xenografted with human 22Rv1 cells assessed as animal weight loss at 50 mg/kg, ip administered twice a week measured after 28 days; assay type: organism-based, CWR22R; details: in vivo, 672 h, time 28 day
CWR22R [10] = assay: In vivo antitumor activity against human 22Rv1 cells xenografted in castrated male nude Balb/c mouse assessed as tumor growth inhibition at 50 mg/kg, ip administered twice a week measured after 28 days relative to control; assay type: functional; details: 22Rv1, 672 h, time 28 day, read-out: TGI
BXPC-3 [11] = assay: Induction of apoptosis in human BXPC-3 cells assessed as necrotic cells at 100 nM incubated for 24 hrs by […] (reference value: 3.57 %); assay type: functional
[12] = AUC (0 to infinity) in Beagle dog at 1 mg/kg, iv measured for 0.083 to 24 hrs by LC-MS/MS analysis; assay type: ADME, organism-based, Canis lupus familiaris; set-up: time upper 24 hrs, time lower 0.083 hrs, dose 1 mg/kg, route iv; details: in vivo
[13] = Cmax in Beagle dog at 1 mg/kg, iv measured for 0.083 to 24 hrs by LC-MS/MS analysis; assay type: ADME, organism-based, Canis lupus familiaris; set-up: time upper 24 hrs, time lower 0.083 hrs, dose 1 mg/kg, route iv; details: in vivo
[14] = Clearance in Beagle dog at 1 mg/kg, iv measured for 0.083 to 24 hrs by LC-MS/MS analysis; assay type: ADME, organism-based, Canis lupus familiaris; details: in vivo, time 0.083-24 hrs
[15] = Half life in Beagle dog at 1 mg/kg, iv measured for 0.083 to 24 hrs by LC-MS/MS analysis; assay type: ADME, organism-based, Canis lupus familiaris; details: in vivo, time 0.083-24 hrs

Structure (SMILES) | IC50 (MV4-11) [nM] | IC50 (MIA PaCa-2) [nM] | IC50 (Huh-7) [nM] | IC50 (MM1.S) [nM] | IC50 (BXPC-3 [2]) [nM] | IC50 (JeKo-1) [nM] | IC50 (CWR22R [1]) [nM] | other results
CCOC(=O)COP1(=O)OC[C@H]2O[C@@H](n3ccc(N)nc3=O)C(F)(F)[C@@H]2O1 (stereo not given in full) | 6.1 | 16.3 | 38.4 | 3.9 | 22.6 | 31.6 | 20.5 | –
CC(C)OC(=O)[C@H](C)NP(=O)(OC[C@H]1O[C@@H](n2ccc(N)nc2=O)C(F)(F)[C@@H]1O)Oc1ccccc1 (stereo not given in full) | – | 710 | – | 500 | > 1000 | – | – | –
C[C@H](NP(=O)(OC[C@H]1O[C@@H](n2ccc(N)nc2=O)C(F)(F)[C@@H]1O)Oc1ccccc1)C(=O)OCc1ccccc1 (stereo not given in full) [FOSGEMCITABINE PALABENAMIDE] | 61 | 142 | 350 | 31.1 | 230 | 160 | 130 | Activity [3]: Non-Toxic; viability at 0.1 µM (BXPC-3 [4]): 88.7%; Activity [5]: Non-Toxic; Activity (BXPC-3 [6]): 1.52%; Activity (BXPC-3 [7]): 2.3%; T/C (CWR22R [8]): 51.9%; Activity [9]: Non-Toxic; inhibition in vivo at 50 mg/kg (CWR22R [10]): 55.6%; Activity (BXPC-3 [11]): 7.48%
Nc1ccn([C@@H]2O[C@@H]3COP(=O)(OCCC(=O)OCc4ccccc4)O[C@H]3C2(F)F)c(=O)n1 (stereo not given in full) | – | 29 | – | – | 68.4 | – | – | –
CCC(=O)Nc1ccn([C@@H]2O[C@@H]3COP(=O)(OCC(=O)OCc4ccccc4)O[C@H]3C2(F)F)c(=O)n1 (stereo not given in full) | – | 530 | – | – | 908 | – | – | –
C[C@H](NP(=O)(OC[C@H]1O[C@@H](n2ccc(N)nc2=O)C(F)(F)[C@@H]1O)Oc1ccccc1)C(=O)OC1CCCCC1 (stereo not given in full) | – | 540 | – | 130 | > 1000 | – | – | –
Nc1ccn([C@@H]2O[C@@H]3COP(=O)(OCCCCC(=O)OCc4ccccc4)O[C@H]3C2(F)F)c(=O)n1 (stereo not given in full) | – | 50.9 | – | – | 213 | – | – | –
CCCC(CCC)C(=O)Nc1ccn([C@@H]2O[C@H](COP(=O)(N[C@@H](C)C(=O)OC(C)C)OCC(=O)OC)[C@@H](O)C2(F)F)c(=O)n1 (stereo not given in full) | – | > 1000 | – | > 1000 | > 1000 | – | – | –
Nc1ccn([C@@H]2O[C@@H]3COP(=O)(OCCCC(=O)OCc4ccccc4)O[C@H]3C2(F)F)c(=O)n1 (stereo not given in full) | – | 35.7 | – | – | 78.3 | – | – | –
COC(=O)[C@H](C)NP(=O)(OC[C@H]1O[C@@H](n2ccc(N)nc2=O)C(F)(F)[C@@H]1O)Oc1ccccc1 (stereo not given in full) | – | 553 | – | 110 | > 1000 | – | – | –
CCCC(CCC)C(=O)Nc1ccn([C@@H]2O[C@H](COP(=O)(N[C@@H](C)C(=O)OCc3ccccc3)Oc3ccccc3)[C@@H](O)C2(F)F)c(=O)n1 (stereo not given in full) | – | > 1000 | – | > 1000 | > 1000 | – | – | –
COC(=O)COP1(=O)OC[C@H]2O[C@@H](n3ccc(N)nc3=O)C(F)(F)[C@@H]2O1 (stereo not given in full) | 5.8 | 13.6 | 23 | 2.7 | 31.1 | 23.2 | 21.5 | –
CC(C)OC(=O)COP1(=O)OC[C@H]2O[C@@H](n3ccc(N)nc3=O)C(F)(F)[C@@H]2O1 (stereo not given in full) | 4.9 | 24.2 | 26.1 | 5.4 | 47.5 | 23.4 | 15 | –

The next lines start with results.

IC50 (MV4-11) [nM] | IC50 (MIA PaCa-2) [nM] | IC50 (Huh-7) [nM] | IC50 (MM1.S) [nM] | IC50 (BXPC-3 [2]) [nM] | Structure (SMILES) | IC50 (JeKo-1) [nM] | IC50 (CWR22R [1]) [nM] | other results
4.1 | – | 22 | 6 | 15 | Nc1ccn([C@@H]2O[C@@H]3CO[P@@](=O)(OCC(=O)OCc4ccccc4)O[C@H]3C2(F)F)c(=O)n1 | – | 8.1 | –
10.3 | – | 69 | 17.3 | 64.5 | Nc1ccn([C@@H]2O[C@H](CO)[C@@H](OP(=O)(O)OCC(=O)OCc3ccccc3)C2(F)F)c(=O)n1 | – | 43.2 | AUC(0-inf) [12]: 637 ng·h/mL; Cmax [13]: 2560 ng/mL; clearance [14]: 28.4 mL/min/kg; half-life [15]: 35.2 min
3.5 | 29.4 | 41.1 | 4.7 | 40.5 | COC(=O)COP(=O)(N[C@@H](C)C(=O)OC(C)C)OC[C@H]1O[C@@H](n2ccc(N)nc2=O)C(F)(F)[C@@H]1O (stereo not given in full) | 26.2 | – | –
5.8 | 27 | 28.2 | 4.1 | 35.2 | COC(=O)COP(=O)(N[C@@H](C)C(=O)OCc1ccccc1)OC[C@H]1O[C@@H](n2ccc(N)nc2=O)C(F)(F)[C@@H]1O (stereo not given in full) | 22.6 | – | –
3.8 | – | 22 | 5 | 14.5 | Nc1ccn([C@@H]2O[C@@H]3CO[P@](=O)(OCC(=O)OCc4ccccc4)O[C@H]3C2(F)F)c(=O)n1 | – | 10.6 | –
10.3 | – | 69 | 17.3 | 64.5 | Nc1ccn([C@@H]2O[C@H](COP(=O)(O)OCC(=O)OCc3ccccc3)[C@@H](O)C2(F)F)c(=O)n1 | – | 43.2 | AUC(0-inf) [12]: 637 ng·h/mL; Cmax [13]: 2560 ng/mL; clearance [14]: 28.4 mL/min/kg; half-life [15]: 35.2 min
